For the experiment, the target named is human HPK1 (MAP4K1) (Homo sapiens (Human), UniProt Q92918). Nature of the experiment: HPK1 IC50 Assay (TR-FRET biochemical kinase assay, STK S1 peptide substrate). As to conditions: recombinant human HPK1 kinase domain 0.15 nM, 10 μM ATP, 1 μM STK S1 peptide; geometric mean. In short, it runs like this: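 Pre-activated recombinant kinase domain (insect cells; 0.15 nM) pre-incubated with compounds for 15 min, then 10 μM ATP and 1 μM STK S1 peptide added for 3 h at 25 °C in BES pH 7.0. Phosphorylation read by HTRF (665/620 nm). IC50 from four-parameter fits normalized to staurosporine/DMSO controls, geometric mean of repeats.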
Sequence of human HPK1 (MAP4K1) (Q92918 17-274): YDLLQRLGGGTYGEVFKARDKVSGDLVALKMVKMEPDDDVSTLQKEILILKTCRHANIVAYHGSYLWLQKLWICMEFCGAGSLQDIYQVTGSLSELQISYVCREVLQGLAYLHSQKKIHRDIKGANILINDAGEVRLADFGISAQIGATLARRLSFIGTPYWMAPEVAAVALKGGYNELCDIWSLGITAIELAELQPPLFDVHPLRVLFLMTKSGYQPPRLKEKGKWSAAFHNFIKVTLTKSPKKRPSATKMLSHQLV
In the case of `CC(C)n1cnc2cc(-c3ccc4c(c3)N([C@H]3C[C@@H](N5CCC(C)(C)C5)C3)C(=O)C4(C)C)nc(Nc3ccncc3F)c21` [Example 189], the 50% inhibitory concentration (IC50) is 0.6 nM.

With `CC(C)n1cnc2cc(-c3ccc4c(c3)N([C@H]3C[C@@H](N5C6COCC5C6)C3)C(=O)C4(C)C)nc(Nc3ccncc3F)c21` [Example 190], the IC50 was determined as 2.1 nM.

For `CC(C)n1cnc2cc(-c3ccc4c(c3)N([C@H]3C[C@@H](N5CCC[C@@H](C)C5)C3)C(=O)C4(C)C)nc(Nc3ccncc3F)c21` [Example 191], the IC50 worked out at 0.9 nM.

As to `CC(C)n1cnc2cc(-c3ccc4c(c3)N([C@H]3C[C@@H](N5CC[C@@H](C)C5)C3)C(=O)C4(C)C)nc(Nc3ccncc3F)c21` [Example 192], the IC50 turned out to be 1.1 nM.

As for `CC(=O)N1CCC2(CC1)C(=O)N([C@H]1C[C@@H](N3CC4CCC3CC4)C1)c1cc(-c3cc4ncn(C(C)C)c4c(Nc4ccncc4F)n3)ccc12` [Example 193], the IC50 turned out to be 0.3 nM.

Turning to `CNC(=O)c1cc(Nc2nc(-c3ccc4c(c3)N([C@H]3C[C@@H](N5CCCCC5)C3)C(=O)C4(C)C)cc3ncn(C(C)C)c23)ncc1C` [Example 194, 2-((6-(3,3-dimethyl-2-oxo-1-((1s,3s)-3-(piperidin-1-yl)cyclobutyl)indolin-6-yl)-3-isopropyl-3H-imidazo[4,5-c]pyridin-4-yl)amino)-N,5-dimethylisonicotinamide], the IC50 came out at 9.6 nM.

Regarding `Cc1cnc(Nc2nc(-c3ccc4c(c3)N([C@H]3C[C@@H](N5CCCCC5)C3)C(=O)C4(C)C)cc3ncn(C(C)C)c23)cc1C(=O)NC1(CF)CC1` [Example 195], the IC50 came to 6 nM.

The record behind these values is patent US11071730B2, “Substituted 6-azabenzimidazole compounds” (Gilead Sciences, Inc., priority 2018, dated 2021).
